From patent US20240336602A1 (Katholieke Universiteit Leuven, priority 2020, published 2024)

Molecular target: T1, mouse TRPM3a2 (mTRPM3) ion channel (Mus musculus, UniProt J9SQF3)
T1 construct: expressed in transfected cells; host or cells: flip-in HEK293
Assay: TRPM3 ion channel driven Ca2+ uptake, Fluo-4 AM assay (PS-stimulated, overexpressing flip-in HEK293 cells)
Format: cell-based
Conditions: PS (50 μM) stimulated
Method: In order to monitor the inhibition of the mouse TRPM3a2 (mTRPM3) ion channel by the compounds of the invention, a cellular system making use of an mTRPM3alpha2 or hTRPM3 overexpressing cell line (flip-in HEK293) was used. The TRPM3 channel was stimulated/opened with Pregnenolone sulfate (PS) (50 μM) which results in Ca^2+ influx.
For mTRPM3, the intracellular Ca^2+ was measured with a Calcium responsive dye, Fluor-4 AM ester (Invitrogen). Cells were cultured until a confluence of 80-90%, washed with Versene (Invitrogen) and detached from the surface by a short incubation with 0.05% Trypsin (Invitrogen). The trypsination process was stopped by the addition of complete cell culture medium (DMEM, glutamax, 10% FCS, NEAA, Pen-Strep). Cells were collected and resuspended in Krebs buffer without Calcium at RT.
Prior the cell seeding (±2000 cells/well into a black, 384 well plate (Greiner)) the diluted compound was added in the assay plate, together with the PS dissolved in Krebs buffer containing Calcium. […] Directly after cell addition the plates were read on an Envision fluorescence reader (Perkin Elmer) by an Excitation of 485 nm and emission at 535 nm.
Channel inhibition was calculated compared to a non-PS stimulated control versus a condition stimulated with PS (50 μM) with vehicle. The ability of the compounds of the invention to inhibit this activity was determined as: Percentage inhibition=[1-((RFU determined for sample with test compound present—RFU determined for sample with positive control inhibitor) divided by (RFU determined in the presence of vehicle—RFU determined for sample with positive control inhibitor))]*100.

T1 sequence (J9SQF3 1-1709 isoform J9SQF3-12): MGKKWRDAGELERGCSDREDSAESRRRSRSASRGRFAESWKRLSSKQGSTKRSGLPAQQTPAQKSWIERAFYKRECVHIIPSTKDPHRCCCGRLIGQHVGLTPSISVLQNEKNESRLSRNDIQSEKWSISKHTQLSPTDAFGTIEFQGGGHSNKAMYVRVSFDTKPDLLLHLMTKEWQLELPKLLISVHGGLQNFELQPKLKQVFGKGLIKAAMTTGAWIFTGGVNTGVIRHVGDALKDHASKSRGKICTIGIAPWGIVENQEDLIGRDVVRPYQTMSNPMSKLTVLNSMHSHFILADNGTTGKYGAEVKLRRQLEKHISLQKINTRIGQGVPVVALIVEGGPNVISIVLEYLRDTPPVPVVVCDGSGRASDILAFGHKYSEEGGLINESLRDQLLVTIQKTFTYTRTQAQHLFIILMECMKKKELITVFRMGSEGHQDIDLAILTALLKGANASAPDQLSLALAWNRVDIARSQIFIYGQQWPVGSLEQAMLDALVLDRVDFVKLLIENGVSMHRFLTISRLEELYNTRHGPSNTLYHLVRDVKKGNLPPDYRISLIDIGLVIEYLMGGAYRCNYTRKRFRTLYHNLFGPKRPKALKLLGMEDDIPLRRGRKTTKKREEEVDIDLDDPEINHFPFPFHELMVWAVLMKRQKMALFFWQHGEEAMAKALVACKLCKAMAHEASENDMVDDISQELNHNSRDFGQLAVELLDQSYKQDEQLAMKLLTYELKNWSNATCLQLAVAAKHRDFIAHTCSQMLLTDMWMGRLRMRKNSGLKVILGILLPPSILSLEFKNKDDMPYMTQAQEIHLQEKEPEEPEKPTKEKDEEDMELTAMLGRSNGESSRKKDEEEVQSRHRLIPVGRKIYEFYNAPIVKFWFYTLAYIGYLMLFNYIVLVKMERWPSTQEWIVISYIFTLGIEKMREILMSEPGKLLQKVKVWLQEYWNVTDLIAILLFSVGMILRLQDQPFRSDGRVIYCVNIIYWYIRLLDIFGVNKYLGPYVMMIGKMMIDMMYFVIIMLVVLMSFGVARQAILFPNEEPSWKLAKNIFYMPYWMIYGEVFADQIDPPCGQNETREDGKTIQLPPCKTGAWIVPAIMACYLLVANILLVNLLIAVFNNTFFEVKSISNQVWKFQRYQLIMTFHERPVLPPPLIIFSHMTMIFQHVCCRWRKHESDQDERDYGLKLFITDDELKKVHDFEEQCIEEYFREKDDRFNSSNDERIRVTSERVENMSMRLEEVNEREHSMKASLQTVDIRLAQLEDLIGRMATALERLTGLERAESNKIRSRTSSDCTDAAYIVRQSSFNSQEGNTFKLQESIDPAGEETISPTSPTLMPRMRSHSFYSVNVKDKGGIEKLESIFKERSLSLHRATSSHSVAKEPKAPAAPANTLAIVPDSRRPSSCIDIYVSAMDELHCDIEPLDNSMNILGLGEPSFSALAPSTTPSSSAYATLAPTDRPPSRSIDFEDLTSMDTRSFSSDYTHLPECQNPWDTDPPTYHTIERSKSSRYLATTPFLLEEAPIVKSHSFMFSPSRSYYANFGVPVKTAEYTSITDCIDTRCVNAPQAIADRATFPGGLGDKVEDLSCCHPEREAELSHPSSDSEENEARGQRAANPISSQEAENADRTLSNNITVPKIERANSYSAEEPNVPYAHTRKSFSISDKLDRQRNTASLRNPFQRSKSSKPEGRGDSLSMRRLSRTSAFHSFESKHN

Row | IC50 (cpds. 400-499) | IC50 (cpds. 500-599) | Structure (SMILES)
1 | ≤ 1000 nM |  | Cc1ncsc1COc1ccc2oc(C)c(C(=O)NC(CO)C(=O)N(C)C)c2c1 (single isomer, unassigned) [411 - En 1]
2 | ≤ 1000 nM |  | Cc1ncc(COc2ccc3oc(C)c(C(=O)NC(CO)CN(C)C)c3c2)s1 (single isomer, unassigned) [412 - En 1]
3 | ≤ 1000 nM |  | Cc1oc2ccc(OCc3ccnn3C)cc2c1C(=O)NC(C)C(N)=O (single isomer, unassigned) [433 - En 1]
4 | ≤ 1000 nM |  | Cc1oc2ccc(OCc3cccnc3O)cc2c1C(=O)NC(C)C(N)=O (single isomer, unassigned) [436 - En 1]
5 | ≤ 1000 nM |  | COc1ncccc1COc1ccc2oc(C)c(C(=O)NC(C)C(N)=O)c2c1 (single isomer, unassigned) [437 - En 1]
6 | ≤ 1000 nM |  | Cc1ncc(COc2ccc3oc(C)c(C(=O)NC(CN(C)C4CC4)C(N)=O)c3c2)s1 (single isomer, unassigned) [445 - En 1]
7 | 1000 to 20000 nM |  | Cc1ncc(COc2ccc3oc(C)c(C(=O)NC(CN(C)C4CC4)C(N)=O)c3c2)s1 (single isomer, unassigned) [445 - En 2]
8 | ≤ 1000 nM |  | Cc1ncsc1COc1ccc2oc(C)c(C(=O)NC(CN(C)C3CC3)C(N)=O)c2c1 (single isomer, unassigned) [446 - En 1]
9 | 1000 to 20000 nM |  | Cc1ncsc1COc1ccc2oc(C)c(C(=O)NC(CN(C)C3CC3)C(N)=O)c2c1 (single isomer, unassigned) [446 - En 2]
10 | ≤ 1000 nM |  | Cc1ncc(COc2ccc3oc(C)c(C(=O)NC(CN(C)C)C(N)=O)c3c2)s1 (single isomer, unassigned) [449 - En 1]
11 | ≤ 1000 nM |  | Cc1ncsc1COc1ccc2oc(C)c(C(=O)NC(CN(C)C)C(N)=O)c2c1 (single isomer, unassigned) [450 - En 1]
12 | ≤ 1000 nM |  | Cc1oc2ccc(OCc3nccn3C)cc2c1C(=O)NC(CO)C(N)=O (single isomer, unassigned) [451 - En 1]
13 | 1000 to 20000 nM |  | Cc1oc2ccc(OCc3nccn3C)cc2c1C(=O)NC(CO)C(N)=O (single isomer, unassigned) [451 - En 2]
14 | ≤ 1000 nM |  | Cc1oc2ccc(OCc3ccnn3C)cc2c1C(=O)NC(CO)C(N)=O (single isomer, unassigned) [452 - En 1]
15 | ≤ 1000 nM |  | Cc1oc2ccc(OCc3ccnn3CC(F)F)cc2c1C(=O)NC(CO)C(N)=O (single isomer, unassigned) [456 - En 1]
16 | ≤ 1000 nM |  | Cc1oc2ccc(OCc3cccnc3C(F)F)cc2c1C(=O)NC(CO)C(N)=O (single isomer, unassigned) [457 - En 1]
17 | ≤ 1000 nM |  | Cc1nc(C)c(COc2ccc3oc(C)c(C(=O)NC(CO)C(N)=O)c3c2)s1 (single isomer, unassigned) [458 - En 1]
18 | ≤ 1000 nM |  | Cc1oc2ccc(OCc3cccnc3O)cc2c1C(=O)NC(CO)C(N)=O (single isomer, unassigned) [459 - En 1]
19 | ≤ 1000 nM |  | Cc1ncccc1COc1ccc2oc(C)c(C(=O)NC(C)(CO)C(N)=O)c2c1 (single isomer, unassigned) [461 - En 1]
20 | ≤ 1000 nM |  | Cc1ncc(COc2ccc3oc(C)c(C(=O)NC(C)(CO)C(N)=O)c3c2)s1 (single isomer, unassigned) [462 - En 1]
21 | ≤ 1000 nM |  | Cc1ncsc1COc1ccc2oc(C)c(C(=O)NC(C)(CO)C(N)=O)c2c1 (single isomer, unassigned) [463 - En 2]
22 | ≤ 1000 nM |  | Cc1ccc(COc2ccc3oc(C)c(C(=O)NC(C)(CO)C(N)=O)c3c2)cn1 (single isomer, unassigned) [464 - En 1]

Row | IC50 (cpds. 400-499) | IC50 (cpds. 500-599) | Structure (SMILES)
23 | ≤ 1000 nM |  | COCC(NC(=O)c1c(C)oc2ccc(OCc3scnc3C)cc12)C(N)=O (single isomer, unassigned) [467 - En 1]
24 | ≤ 1000 nM |  | COCC(C)(NC(=O)c1c(C)oc2ccc(OCc3scnc3C)cc12)C(N)=O (single isomer, unassigned) [468 - En 1]
25 | 1000 to 20000 nM |  | Cc1ncc(COc2ccc3oc(C)c(C(=O)NC(CO)CN4CCOCC4)c3c2)s1 (single isomer, unassigned) [487 - En 1]
26 | ≤ 1000 nM |  | Cc1ncsc1COc1ccc2oc(C)c(C(=O)NC(CO)CN3CCOCC3)c2c1 (single isomer, unassigned) [488 - En 1]
27 | 1000 to 20000 nM |  | Cc1ncsc1COc1ccc2oc(C)c(C(=O)NC(CO)CN3CCOCC3)c2c1 (single isomer, unassigned) [488 - En 2]
28 |  | ≤ 1000 nM | Cc1oc2ccc(OCc3cccnc3C(F)(F)F)cc2c1C(=O)NC1(CO)CCCNC1=O (single isomer, unassigned) [510 - En 1]
29 |  | ≤ 1000 nM | Cc1ncc(COc2ccc3oc(C)c(C(=O)NC4(CO)CCCNC4=O)c3c2)o1 (single isomer, unassigned) [511 - En 1]
30 |  | 1000 to 20000 nM | Cc1ncc(COc2ccc3oc(C)c(C(=O)NC4(CO)CCCNC4=O)c3c2)o1 (single isomer, unassigned) [511 - En 2]
31 |  | ≤ 1000 nM | Cc1ncccc1COc1ccc2oc(C)c(C(=O)NC3(CO)CCCNC3=O)c2c1 (single isomer, unassigned) [512 - En 1]
32 |  | ≤ 1000 nM | Cc1ncsc1COc1ccc2oc(C)c(C(=O)NC3(CO)CCCNC3=O)c2c1 (single isomer, unassigned) [513 - En 1]
33 |  | ≤ 1000 nM | Cc1ccc(COc2ccc3oc(C)c(C(=O)NC4(CO)CCCNC4=O)c3c2)cn1 (single isomer, unassigned) [514 - En 1]
34 |  | ≤ 1000 nM | Cc1ncccc1COc1ccc2oc(C)c(C(=O)NC3(CO)CCNC3=O)c2c1 (single isomer, unassigned) [516 - En 1]
35 |  | ≤ 1000 nM | Cc1ncsc1COc1ccc2oc(C)c(C(=O)NC3(CO)CCNC3=O)c2c1 (single isomer, unassigned) [518 - En 1]
36 |  | ≤ 1000 nM | Cc1ccc(COc2ccc3oc(C)c(C(=O)NC4(CO)CCNC4=O)c3c2)cn1 (single isomer, unassigned) [519 - En 1]
37 |  | ≤ 1000 nM | Cc1oc2ccc(OCc3ccccn3)cc2c1C(=O)NC1(CO)CCNC1=O (single isomer, unassigned) [520 - En 1]
38 |  | ≤ 1000 nM | Cc1oc2ccc(OCc3ccccn3)cc2c1C(=O)NC1(CO)CCNC1=O (single isomer, unassigned) [520 - En 2]
39 |  | ≤ 1000 nM | Cc1oc2ccc(OCc3cccnc3O)cc2c1C(=O)NC1(CO)CCNC1=O (single isomer, unassigned) [521 - En 1]
40 |  | 1000 to 20000 nM | Cc1oc2ccc(OCc3cccnc3O)cc2c1C(=O)NC1(CO)CCNC1=O (single isomer, unassigned) [521 - En 2]
41 |  | ≤ 1000 nM | COc1ncccc1COc1ccc2oc(C)c(C(=O)NC3(CO)CCNC3=O)c2c1 (single isomer, unassigned) [522 - En 1]
42 |  | 1000 to 20000 nM | Cc1oc2ccc(OCc3cccn(C)c3=O)cc2c1C(=O)NC1CCNCC1(F)F (single isomer, unassigned) [544 - En 1]
43 |  | 1000 to 20000 nM | Cc1oc2ccc(OCc3cccc(O)n3)cc2c1C(=O)NC1CCNCC1(F)F (single isomer, unassigned) [569 - En 1, N-(3,3-difluoropiperidin-4-yl)-2-methyl-5-((6-oxo-1,6-dihydropyridin-2-yl)methoxy)benzofuran-3-carboxamide]
44 |  | ≥ 20000 nM | Cc1oc2ccc(OCc3cccc(O)n3)cc2c1C(=O)NC1CCNCC1(F)F (single isomer, unassigned) [569 - En 2, N-(3,3-difluoropiperidin-4-yl)-2-methyl-5-((6-oxo-1,6-dihydropyridin-2-yl)methoxy)benzofuran-3-carboxamide]
